Experimental data reported in patent publication US10670605B2, “Cysteine reactive probes and uses thereof” (The Scripps Research Institute, priority 2015, dated 2020).
One block for each compound: values may come before it.

Key:
Assay in all cases: Competitive isoTOP-ABPP, cell lysates
Type in all cases: binding
PES1 C361 (O00541) = PES1 C361 (O00541) (Homo sapiens, UniProt O00541)
USP22 C44 (Q9UPT9) = molecular target: T1, USP22 C44 (Q9UPT9) (Homo sapiens, UniProt Q9UPT9)
T1 sequence (Q9UPT9 1-525): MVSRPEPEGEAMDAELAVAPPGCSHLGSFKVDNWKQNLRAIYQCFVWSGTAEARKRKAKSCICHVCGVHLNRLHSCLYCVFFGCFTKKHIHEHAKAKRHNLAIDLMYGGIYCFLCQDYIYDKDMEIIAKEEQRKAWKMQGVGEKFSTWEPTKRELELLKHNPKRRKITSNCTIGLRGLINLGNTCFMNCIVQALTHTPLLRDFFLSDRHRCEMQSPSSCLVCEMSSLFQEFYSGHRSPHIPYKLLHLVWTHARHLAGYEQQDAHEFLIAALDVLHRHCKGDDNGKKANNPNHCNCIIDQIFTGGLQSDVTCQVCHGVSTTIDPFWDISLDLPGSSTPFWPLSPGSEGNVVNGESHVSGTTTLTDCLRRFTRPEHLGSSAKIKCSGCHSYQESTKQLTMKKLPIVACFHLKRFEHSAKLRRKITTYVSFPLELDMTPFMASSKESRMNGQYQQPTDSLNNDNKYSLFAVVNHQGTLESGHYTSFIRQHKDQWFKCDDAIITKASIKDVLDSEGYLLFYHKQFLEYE

ZAP70 C117 (P43403) = molecular target: T2, ZAP70 C117 (P43403) (Homo sapiens, UniProt P43403); conditions: for isoTOP-ABPP ratio, P43403_C117: 500 μM, invitro; for isoTOP-ABPP ratio (reactivity profile), P43403_C117: 500 μm in-vitro ramos
T2 sequence (P43403 1-619): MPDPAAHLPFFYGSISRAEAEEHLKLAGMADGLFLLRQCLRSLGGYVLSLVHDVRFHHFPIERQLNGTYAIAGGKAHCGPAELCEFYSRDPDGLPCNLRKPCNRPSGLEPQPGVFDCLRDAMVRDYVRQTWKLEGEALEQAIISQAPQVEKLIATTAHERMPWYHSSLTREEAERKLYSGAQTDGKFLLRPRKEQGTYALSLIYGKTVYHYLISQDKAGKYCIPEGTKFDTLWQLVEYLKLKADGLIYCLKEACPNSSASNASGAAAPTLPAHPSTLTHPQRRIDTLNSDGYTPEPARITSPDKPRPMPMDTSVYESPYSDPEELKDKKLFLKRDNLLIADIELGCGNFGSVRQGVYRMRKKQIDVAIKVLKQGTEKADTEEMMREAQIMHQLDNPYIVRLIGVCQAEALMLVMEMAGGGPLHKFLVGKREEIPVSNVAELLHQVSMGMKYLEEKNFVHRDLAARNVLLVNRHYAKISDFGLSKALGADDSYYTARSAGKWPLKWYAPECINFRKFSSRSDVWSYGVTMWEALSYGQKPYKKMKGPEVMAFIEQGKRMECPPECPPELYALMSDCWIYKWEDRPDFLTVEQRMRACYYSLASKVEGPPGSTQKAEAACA

PES1 C361 (O00541), sequence (O00541 whole entry, looked up): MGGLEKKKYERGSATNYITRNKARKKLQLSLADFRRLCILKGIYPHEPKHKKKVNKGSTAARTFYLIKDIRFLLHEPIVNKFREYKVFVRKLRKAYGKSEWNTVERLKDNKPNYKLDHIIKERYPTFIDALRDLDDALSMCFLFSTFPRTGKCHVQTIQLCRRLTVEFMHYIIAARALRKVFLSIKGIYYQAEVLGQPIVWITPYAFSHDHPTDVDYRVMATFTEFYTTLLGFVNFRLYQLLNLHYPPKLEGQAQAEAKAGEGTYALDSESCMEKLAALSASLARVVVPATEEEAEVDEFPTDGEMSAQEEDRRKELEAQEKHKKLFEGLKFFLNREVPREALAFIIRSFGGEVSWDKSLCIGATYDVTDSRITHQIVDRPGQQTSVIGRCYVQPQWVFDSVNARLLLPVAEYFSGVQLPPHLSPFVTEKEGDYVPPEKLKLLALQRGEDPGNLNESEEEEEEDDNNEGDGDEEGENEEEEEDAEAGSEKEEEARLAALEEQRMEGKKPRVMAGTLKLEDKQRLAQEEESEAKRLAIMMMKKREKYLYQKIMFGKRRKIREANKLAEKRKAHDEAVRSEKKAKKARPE

- R value (DMSO/fragment) (PES1 C361 (O00541); 500 μM, in vitro, MDA-MB-231): 1.5
SMILES: O=C(CCl)Nc1cc(C(F)(F)F)cc(C(F)(F)F)c1 [compound 3]

- isoTOP-ABPP ratio, Q9UPT9_C44 (USP22 C44 (Q9UPT9); 500 μM, invitro, ramos): 20.0
SMILES: C=CC(=O)N(c1ccccc1)c1ccc(Br)cc1 [compound 5]

- isoTOP-ABPP ratio, P43403_C117 (ZAP70 C117 (P43403); 231): 20.0
- isoTOP-ABPP ratio, P43403_C117 (ZAP70 C117 (P43403); ramos): 20.0
SMILES: O=C(CCl)N1CCN(S(=O)(=O)c2ccccc2F)CC1 [compound 10]

- isoTOP-ABPP ratio (reactivity profile), P43403_C117 (ZAP70 C117 (P43403)): 20.0
SMILES: C=CC(=O)N(Cc1cccnc1)c1ccc(Oc2ccccc2)c(C(F)(F)F)c1 [compound 15]

SMILES: O=C(CCl)N1CCC(C(O)(c2ccccc2)c2ccccc2)CC1 [compound 20]
- isoTOP-ABPP ratio (reactivity profile), P43403_C117 (ZAP70 C117 (P43403)): 20.0
- isoTOP-ABPP ratio (reactivity profile), O00541_C361 (PES1 C361 (O00541); 500 μm in-vitro ramos): 20.0
- isoTOP-ABPP ratio (reactivity profile), O00541_C361 (PES1 C361 (O00541); 500 μm in-vitro ramos_231): 20.0

- isoTOP-ABPP ratio (reactivity profile), O00541_C361 (PES1 C361 (O00541); 500 μm in-vitro ramos): 1.1
SMILES: N#C/C(=C\c1cc(C(F)(F)F)cc(C(F)(F)F)c1)C(N)=O [compound 23]

- isoTOP-ABPP ratio (reactivity profile), Q9UPT9_C44 (USP22 C44 (Q9UPT9); 500 μm in-vitro ramos): 1.2
- isoTOP-ABPP ratio (reactivity profile), Q9UPT9_C44 (USP22 C44 (Q9UPT9); 500 μm in-vitro ramos_231): 20.0
SMILES: CC(C)CCOCCNC(=O)CCl [compound 27]

- isoTOP-ABPP ratio (reactivity profile), P43403_C117 (ZAP70 C117 (P43403)): 1.1
SMILES: COc1ccccc1OCCNC(=O)CCl [compound 28]

- isoTOP-ABPP reactivity ratio, Q9UPT9_C44 (USP22 C44 (Q9UPT9); 500 μm, in-vitro_ramos): 1.7
SMILES: CCN(CC)c1ccc(S(N)(=O)=O)cc1NC(=O)CCl [compound 30]

- isoTOP-ABPP reactivity profile ratio, Q9UPT9_C44 (USP22 C44 (Q9UPT9); 500 μm, in-vitro_ramos): 2.1
SMILES: COc1cc(NC(=O)CCl)cc(OC)c1 [compound 43]
